The values below are quoted from earlier work in patent US20050043536A1, “Sulfonamides” (priority 2001, published 2005).

In the data set the test system is rat-isolated aorta.

`CC(C)[C@H](NC(=O)[C@@H]1CSSC[C@H](NC(=O)[C@H](CC(=O)O)NC(=O)[C@@H]2CCCN2C(=O)[C@@H](NC(=O)[C@@H](N)CCC(=O)O)[C@@H](C)O)C(=O)N[C@@H](Cc2ccccc2)C(=O)N[C@@H](Cc2c[nH]c3ccccc23)C(=O)N[C@@H](CCCCN)C(=O)N[C@@H](Cc2ccc(O)cc2)C(=O)N1)C(=O)O` [Human Urotensin-II]: the contractile activity result is “the most potent contractile agonist identified to date”.
